The term EC50 denotes the concentration that produces a half-maximal response. The term CC50 denotes the concentration that lowers cell viability or growth by half. The IC50 is the concentration that gives 50% inhibition. Lower therefore signals greater potency. Usually IC90 stands for the concentration needed for an effect of 90%. Read a high IC90 as a need for much substance.

The values below come from paper PMC6688628, “N-Substituted Pyrrole Derivative 12m Inhibits HIV-1 Entry by Targeting Gp41 of HIV-1 Envelope Glycoprotein” (Frontiers in Pharmacology, 2019).

One data set deals with HIV-1 IIIB. The data set is described as follows: Cell-cell HIV-1 IIIB transmission, MT-2 to CEMx174 5.25 M7 cells. In kind it is cell-based. The following applies: Human immunodeficiency virus 1, IIIB; infected MT-2 to CEMx174 5.25 M7 cells; luciferase. Here is the method:
(§1) Inhibition of fusion between MT-2 cells infected by HIV-1 strains (X4 and R5 viruses) with CEMx174 5.25 M7 cells, which express CD4 and both coreceptors, CXCR4 and CCR5, was determined by a luciferase assay. Briefly, MT-2 cells were infected with the corresponding HIV-1 strains for 7 days. The infected MT-2 cells were washed three times and resuspended in culture medium to 2 × 10^5/ml. Then, 50 μl of a compound at graded concentrations in triplicate was incubated with equal volumes of HIV-1-infected MT-2 cells at 37°C for 30 min. Next, 100 μl of CEMx174 5.25 M7 cells (4 × 10^5/ml) was added, and the cells were incubated at 37°C for 3 days. The cells were collected, washed, and lysed with the lysing reagent included in the luciferase kit (Promega, Corp., Madison, Wis). Aliquots of cell lysates were transferred to 96-well flat-bottom luminometer plates (Costar), followed by the addition of luciferase substrate (Promega). Luciferase activity was measured using an Ultra 384 luminometer. ADS-J1 was used as a positive control for all cell–cell fusion assays.

The next data set is described as follows: XTT assay, TZM-bl cells. Type of data set: cell-based. The following applies: human. As to the method: The in vitro cell viability of NSPD-12m on HIV-1 target cells (U87-CD4-CXCR4, U87-CD4-CCR5, TZM-bl, and MT-2 cells) and HIV effector cells (CHO-WT cells) was analyzed by an XTT colorimetric assay. Briefly, 100 µl of 5 × 10^5/ml cells was mixed and incubated with 100 µl of NSPD-12m at graded concentrations at 37°C for 3 days. Then, 50 µl of XTT solution (1 mg/ml) containing 0.02 µM of phenazinemethosulphate (PMS) was added to each well, and the cells were incubated at 37°C for another 4 h. The absorbance at 450 nm was measured with an ELISA reader. The 50% cytotoxicity concentrations (CC50) were calculated using the CalcuSyn software ([Chou and Talalay, 1984]).
(In general: Tetrazolium assays rely on reduction of a dye to a coloured formazan, in cell work by metabolically active cells.)

The target in data set [1] is T1, gp41 6-HB (N36/C34) (Human immunodeficiency virus type 1 group M subtype B, UniProt P04578).
T1 construct: purchased GL Biochem of China; host or cells: chemical solid-phase Fmoc synthesis
T1 sequence (P04578 546-581): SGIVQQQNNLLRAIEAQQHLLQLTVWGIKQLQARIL
The data set is described as follows: N-PAGE for gp41 6-HB formation. The following applies: 400, 200, 100, 50, and 25 μM incubated with N36 before C34; dose-dependent. In kind it is biochemical, HIV-1. As to the method:
The inhibition of gp41 6-HB formation by NSPD-12m was further confirmed by N-PAGE as reported previously ([Liu et al., 2005]). Briefly, NSPD-12m at the indicated concentrations was incubated with the peptide N36 (100 μM in PBS) at 37°C for 30 min before the addition of the peptide C34 (100 μM in PBS). After incubation at 37°C for another 30 min, the mixture was diluted in Tris-glycine native sample buffer (Invitrogen, Carlsbad, CA) and then loaded onto 10 × 1.0-cm precast Tris-glycine gels (18%, Invitrogen) at 20 µl/well. Gel electrophoresis was carried out at constant voltage of 120 V at room temperature (RT) for 2 h in Tris-glycine native running buffer. Immediately after electrophoresis, the gel was stained by Coomassie blue (Invitrogen) and imaged by the FluorChem 8800 Imaging System (Alpha Innotech, San Leandro, CA). ADS-J1 (1 mM in PBS), a small-molecule HIV-1 entry inhibitor that blocks gp41 6-HB formation, was used as a positive control ([Wang et al., 2009]).

In data set [2] the test system is HIV-1 NL4-3(36G)V38A,N42D. The following applies: T20-resistant NL4-3(36G)V38A,N42D; p24 ELISA; mean ± SD. On the technique in general: In an ELISA, binding on a coated surface is turned into a signal by an enzyme label.
Data set [3] addresses T1, gp41 6-HB (N36/C34). In words: Sandwich ELISA for gp41 6-HB formation. Type of data set: biochemical, HIV-1. The following applies: sandwich ELISA with mAb NC-1; 0.5-µM N36 and C34. As to the method:
The inhibition of gp41 6-HB formation by NSPD-12m was determined by a sandwich ELISA as previously described ([Liu et al., 2007]). In brief, the wells of a 96-well polystyrene plate (Corning) were first precoated with 2 µg/ml IgG purified from rabbit antisera against the N36/C34 complex at 4°C overnight. In addition, the wells were blocked by 2% dry nonfat milk at 37°C for 1 h. NSPD-12m at graded concentrations was incubated with 0.5-µM N36 at 37°C for 30 min, followed by the addition of 0.5-µM C34 at 37°C for another 30-min incubation. Afterward, the previously mentioned mixtures were added to the prepared wells and incubated at 37°C for another 1 h. Then, 1 µg/ml mAb NC-1, biotin-labeled goat anti-mouse IgG (1:10,000 diluted in PBS buffer with 2% dry nonfat milk), SA-HRP (1:20,000 diluted in PBS buffer with 10% goat serum), TMB, and 1-M H2SO4 were added sequentially. A450 was measured by an ELISA reader, and EC50 was calculated using CalcuSyn software ([Chou and Talalay, 1984]). NB-64, a small-molecule HIV entry inhibitor targeting gp41, and ADS-J1 were used as positive controls.

The next data set concerns HIV-1 R5 virus. The data set is described as follows: Cell-cell HIV-1 R5 transmission, MT-2 to CEMx174 5.25 M7 cells. Type of data set: cell-based. The following applies: Human immunodeficiency virus 1; infected MT-2 to CEMx174 5.25 M7 cells; luciferase. As to the method: as §1
Data set [4] has as its system HIV-1 NL4-3(36G)V38A,N42T. The following applies: T20-resistant NL4-3(36G)V38A,N42T; p24 ELISA; mean ± SD.
The next data set deals with HIV-1 X4 virus. In words: Cell-cell HIV-1 X4 transmission, MT-2 to CEMx174 5.25 M7 cells. In kind it is cell-based. The following applies: Human immunodeficiency virus 1; infected MT-2 to CEMx174 5.25 M7 cells; luciferase. Here is the method: as §1
In a further data set the test system is HIV-1 92UG029. In words: Anti-HIV-1 activity, primary strain 92UG029. Type of data set: cell-based. The following applies: Human immunodeficiency virus 1, luciferase readout, mean ± SD.
For data set [5], the system named is HIV-1JR-FL Env mutant Q577A pseudovirus. In kind it is cell-based. The following applies: compared with wild-type HIV-1JR-FL pseudovirus.

On to `Cc1cc(/C=C2\SC(=S)N(Cc3ccccc3C(F)(F)F)C2=O)c(C)n1-c1ccc(O)c(C(=O)O)c1` [NSPD-12m], for which the EC50 with HIV-1 IIIB was 1.99 ± 0.08 µM; at gp41 6-HB (N36/C34) [3], 23 ± 1.44 µM; in the data set on HIV-1 R5 virus, 1.42 ± 0.3 µM; with HIV-1 X4 virus it was 3.64 ± 0.34 µM. Also, the CC50 at 3 days in the data set “XTT assay, TZM-bl cells” turned out to be 79 ± 11.4 µM. In “XTT assay, TZM-bl cells”, this compound had a CC90 at 3 days of 118 ± 18 µM. For the same compound, the “intensity of the 6-HB band (upper position) in N-PAGE” value at gp41 6-HB (N36/C34) [1] is given as “decreased”. Also, the IC50 was found to be 22.4 ± 2.84 µM in data set [2], 16.3 ± 3.03 µM in data set [4] and 2.08 ± 0.041 µM in the data set on HIV-1 92UG029. Further, the values for the IC90 (in [2]; in data set [4]; in the data set on HIV-1 92UG029) were 32.5 ± 4.95 µM, 33.9 ± 6.14 µM and 2.48 ± 0.041 µM, respectively. Further, the “inhibitory activity against Q577A mutant pseudovirus” value in [5] was “retained the inhibitory activity”.
